Laboratory results from the supplement of paper PMC8967900.

The compounds below were run on REH (assay: selective drug sensitivity score (sDSS, relative to normal bone marrow) (sDSS (score)); higher = more potent and effective on the cell line relative to normal bone marrow cells). Conditions: 72 h.
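Also: ALL cell lines in 384-well plates, five doses spanning 10,000-fold, each plate scaled between vehicle and 100 µmol/L benzalkonium chloride controls, sDSS an adapted area-under-curve metric.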

In order of rising “selective drug sensitivity score” value:
1. Cn1ncnc1[C@H]1c2n[nH]c(=O)c3cc(F)cc(c23)N[C@@H]1c1ccc(F)cc1 [Talazoparib] (top concentration 1000 nM)  -3.72
2. CNC(=O)c1ccccc1Nc1cc(Nc2ccc(N3CCOCC3)cc2OC)ncc1C(F)(F)F [VS-4718] (top concentration 10000 nM)  -1.1
3. CC(C)C[C@@H](C(=O)N[C@H](C(=O)OC1CCCC1)c1ccccc1)[C@H](O)C(=O)NO [Tosedostat] (top concentration 10000 nM)  -0.64
4. Cc1cccc(-c2[nH]c(CNc3ccccc3F)nc2-c2ccc3ncnn3c2)n1 [Vactosertib (TEW-7197)] (top concentration 2500 nM)  -0.5
5. COc1cccc2c1c(O)c(C(=O)N(C)c1ccc(C(F)(F)F)cc1)c(=O)n2C [Tasquinimod] (top concentration 10000 nM)  -0.42
6. COc1ccc(CCc2nc3cc(-c4c(C)noc4C)ccc3n2C[C@H](C)N2CCOCC2)cc1Cl [SGC-CBP30] (top concentration 25000 nM)  -0.02
7. CC(=O)Nc1ccc(C(=O)Nc2ccccc2N)cc1 [Tacedinaline] (top concentration 1000 nM)  -0.02
8. CC#CC(=O)N1CC[C@@H](n2c(=O)n(-c3ccc(Oc4ccccc4)cc3)c3c(N)ncnc32)C1 [Tirabrutinib] (top concentration 1000 nM)  0
9. CN(C)Cc1ccc(S(=O)(=O)n2ccc(/C=C/C(=O)NO)c2)cc1 [Resminostat] (top concentration 10000 nM)  2.04
10. O=C(/C=C\n1cnc(-c2cc(C(F)(F)F)cc(C(F)(F)F)c2)n1)NNc1ccccn1 [Verdinexor] (top concentration 1000 nM)  4.44
11. O=C(CCCCCCC(=O)Nc1ccccc1)NO [Vorinostat] (top concentration 10000 nM)  4.5
12. Nc1nc(NC2CC2)cc(-c2cccc(Cl)c2Cl)n1 [TH588] (top concentration 25000 nM)  5.82
13. CS(=O)(=O)c1ccc(-c2cnc(N)c(C(=O)Nc3ccccc3)n2)cc1 [VE-821] (top concentration 10000 nM)  7.14
14. Nc1nc2[nH]cnc2c(=S)[nH]1 [Thioguanine] (top concentration 10000 nM)  10.8
15. CCS(=O)(=O)c1cccc(-c2cc(C(=O)NC3CCN(C)CC3)c(C)c3[nH]c4ncc(C)cc4c23)c1 [TAK-901] (top concentration 1000 nM)  11.1
16. CC[C@@H]1C(=O)N(C)c2cnc(Nc3ccc(C(=O)N[C@H]4CC[C@H](N5CCN(CC6CC6)CC5)CC4)cc3OC)nc2N1C(C)C [Volasertib] (top concentration 1000 nM)  12.8
17. COc1cc(OC)c(/C=C/S(=O)(=O)Cc2ccc(OC)c(NCC(=O)O)c2)c(OC)c1 [Rigosertib] (top concentration 10000 nM)  14

What follows are compounds tested on COG-LL-355h in the same assay as above. Conditions: 72 h.

In order of rising “selective drug sensitivity score” value:
1. COc1cccc2c1c(O)c(C(=O)N(C)c1ccc(C(F)(F)F)cc1)c(=O)n2C [Tasquinimod] (top concentration 10000 nM)  -0.42
2. CC(=O)Nc1ccc(C(=O)Nc2ccccc2N)cc1 [Tacedinaline] (top concentration 1000 nM)  -0.02
3. CC#CC(=O)N1CC[C@@H](n2c(=O)n(-c3ccc(Oc4ccccc4)cc3)c3c(N)ncnc32)C1 [Tirabrutinib] (top concentration 1000 nM)  0
4. Cc1cccc(-c2[nH]c(CNc3ccccc3F)nc2-c2ccc3ncnn3c2)n1 [Vactosertib (TEW-7197)] (top concentration 2500 nM)  1.2
5. CNC(=O)c1ccccc1Nc1cc(Nc2ccc(N3CCOCC3)cc2OC)ncc1C(F)(F)F [VS-4718] (top concentration 10000 nM)  1.3
6. Nc1nc(NC2CC2)cc(-c2cccc(Cl)c2Cl)n1 [TH588] (top concentration 25000 nM)  2.42
7. Nc1nc2[nH]cnc2c(=S)[nH]1 [Thioguanine] (top concentration 10000 nM)  4.04
8. COc1cc(OC)c(/C=C/S(=O)(=O)Cc2ccc(OC)c(NCC(=O)O)c2)c(OC)c1 [Rigosertib] (top concentration 10000 nM)  4.16
9. CS(=O)(=O)c1ccc(-c2cnc(N)c(C(=O)Nc3ccccc3)n2)cc1 [VE-821] (top concentration 10000 nM)  5.64
10. CN(C)Cc1ccc(S(=O)(=O)n2ccc(/C=C/C(=O)NO)c2)cc1 [Resminostat] (top concentration 10000 nM)  6.04
11. CCS(=O)(=O)c1cccc(-c2cc(C(=O)NC3CCN(C)CC3)c(C)c3[nH]c4ncc(C)cc4c23)c1 [TAK-901] (top concentration 1000 nM)  6.16
12. CC[C@@H]1C(=O)N(C)c2cnc(Nc3ccc(C(=O)N[C@H]4CC[C@H](N5CCN(CC6CC6)CC5)CC4)cc3OC)nc2N1C(C)C [Volasertib] (top concentration 1000 nM)  6.4
13. O=C(CCCCCCC(=O)Nc1ccccc1)NO [Vorinostat] (top concentration 10000 nM)  7.7
14. Cn1ncnc1[C@H]1c2n[nH]c(=O)c3cc(F)cc(c23)N[C@@H]1c1ccc(F)cc1 [Talazoparib] (top concentration 1000 nM)  8.28
15. O=C(/C=C\n1cnc(-c2cc(C(F)(F)F)cc(C(F)(F)F)c2)n1)NNc1ccccn1 [Verdinexor] (top concentration 1000 nM)  8.54
16. COc1ccc(CCc2nc3cc(-c4c(C)noc4C)ccc3n2C[C@H](C)N2CCOCC2)cc1Cl [SGC-CBP30] (top concentration 25000 nM)  9.88
17. CC(C)C[C@@H](C(=O)N[C@H](C(=O)OC1CCCC1)c1ccccc1)[C@H](O)C(=O)NO [Tosedostat] (top concentration 10000 nM)  11.4

What follows are compounds tested on ALL-PO in the same assay as above. Conditions: 72 h.

In order of falling “selective drug sensitivity score” value:
1. COc1cc(OC)c(/C=C/S(=O)(=O)Cc2ccc(OC)c(NCC(=O)O)c2)c(OC)c1 [Rigosertib] (top concentration 10000 nM)  11.2
2. Nc1nc(NC2CC2)cc(-c2cccc(Cl)c2Cl)n1 [TH588] (top concentration 25000 nM)  10.5
3. CCS(=O)(=O)c1cccc(-c2cc(C(=O)NC3CCN(C)CC3)c(C)c3[nH]c4ncc(C)cc4c23)c1 [TAK-901] (top concentration 1000 nM)  7.76
4. CN(C)Cc1ccc(S(=O)(=O)n2ccc(/C=C/C(=O)NO)c2)cc1 [Resminostat] (top concentration 10000 nM)  6.34
5. Cn1ncnc1[C@H]1c2n[nH]c(=O)c3cc(F)cc(c23)N[C@@H]1c1ccc(F)cc1 [Talazoparib] (top concentration 1000 nM)  4.78
6. COc1ccc(CCc2nc3cc(-c4c(C)noc4C)ccc3n2C[C@H](C)N2CCOCC2)cc1Cl [SGC-CBP30] (top concentration 25000 nM)  4.38
7. CC(=O)Nc1ccc(C(=O)Nc2ccccc2N)cc1 [Tacedinaline] (top concentration 1000 nM)  -0.02
8. COc1cccc2c1c(O)c(C(=O)N(C)c1ccc(C(F)(F)F)cc1)c(=O)n2C [Tasquinimod] (top concentration 10000 nM)  -0.32
